Earlier results on three molecules are cited in patent US9561225B2, “Pharmaceutical formulation containing opioid agonist, opioid antagonist and gelling agent” (Purdue Pharma L.P., priority 2001, dated 2017).

For series [1] the following is noted: after oral administration.
Series [2] concerns morphine-like opioid agonist / heroin effects.

As to `C[C@H]1[C@H]2Cc3ccc(O)cc3[C@]1(C)CCN2CC1CC1` [cyclazocine], the duration of action in series [1] is around 24 h.
Take `C=CCN1CC[C@]23c4c5ccc(O)c4O[C@H]2C(=O)CC[C@@]3(O)[C@H]1C5` [naloxone]: the “block of the effect of 25 mg of heroin” value in series [2] (1 mg intravenously) is “completely block”. Further, the “effect on morphine-like opioid agonist effects” value in series [2] (0.4-0.8 mg intramuscularly or intravenously in man) was “prevent or promptly reverse the effects of morphine-like opioid agonist”.
For the molecule `O=C1CC[C@@]2(O)[C@H]3Cc4ccc(O)c5c4[C@@]2(CCN3CC2CC2)[C@H]1O5` [naltrexone], the time of absorption (following oral administration) is at most 1 h. For the setting “in vivo”, the protein binding entry was “approximately 21%”. The duration of action in series [1] is around 24 h.
